Test results as given in PMC4298667, “Chemical and protein structural basis for biological crosstalk between PPARα and COX enzymes” (Journal of Computer-Aided Molecular Design, 2014).

Columns and labels:
COX-1 [1] = target: T1, COX-1 (Homo sapiens, UniProt P23219); set-up: gene PTGS1
COX-1 [2] = target: T1, COX-1; assay: microsomal enzyme assay, percent inhibition at […] (only […] at […]); type: cell-free; set-up: gene PTGS1; recombinant human COX-1, microsomes from transfected Sf9 cells
COX-1 [3] = target: T1, COX-1; assay: microsomal enzyme assay, percent inhibition at […] (marginal, […], at […]); type: biochemical; set-up: gene PTGS1; recombinant human COX-1, microsomes from transfected Sf9 cells

T1 sequence (P23219 24-599): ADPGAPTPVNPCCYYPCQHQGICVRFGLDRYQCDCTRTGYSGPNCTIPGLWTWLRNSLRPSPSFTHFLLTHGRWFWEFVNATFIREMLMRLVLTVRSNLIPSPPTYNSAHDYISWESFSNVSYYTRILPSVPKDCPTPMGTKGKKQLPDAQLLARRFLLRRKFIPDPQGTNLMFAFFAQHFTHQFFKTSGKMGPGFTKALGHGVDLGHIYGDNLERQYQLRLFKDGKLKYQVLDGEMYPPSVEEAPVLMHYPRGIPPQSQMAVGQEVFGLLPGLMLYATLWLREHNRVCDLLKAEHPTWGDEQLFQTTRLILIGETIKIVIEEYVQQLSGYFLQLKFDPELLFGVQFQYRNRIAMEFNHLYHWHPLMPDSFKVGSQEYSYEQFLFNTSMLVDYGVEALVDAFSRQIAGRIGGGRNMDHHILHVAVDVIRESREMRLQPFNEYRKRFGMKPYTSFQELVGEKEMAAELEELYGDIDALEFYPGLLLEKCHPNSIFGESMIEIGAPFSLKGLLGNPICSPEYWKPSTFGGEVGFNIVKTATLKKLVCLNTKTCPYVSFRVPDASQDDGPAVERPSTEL

CC(C)(Oc1ccc(C(=O)c2ccc(Cl)cc2)cc1)C(=O)O [fenofibric acid]
IC50 (COX-1 [1]): 950 µM

Cc1ccc(C)c(OCCCC(C)(C)C(=O)O)c1 [gemfibrozil]
inhibition at 250 µM (COX-1 [2]): 18%

CC(C)(Oc1ccc(Cl)cc1)C(=O)O [clofibric acid]
inhibition at 250 µM (COX-1 [3]): 14%
